Results taken from article PMC7324608 (Scientific Reports, 2020).
Where two headings read alike, the source gives them in different places.

What was measured:
[1] = target: T1, HpHtrA (Helicobacter pylori, UniProt G2J5T2); test: in vitro E-cadherin (hCdh1) cleavage by HpHtrA (Western blot); type: biochemical; conditions: 50 ng hCdh1, 250 ng HpHtrA, 16 h, 37 °C; for effect on HpHtrA-mediated hCdh1 cleavage/fragmentation: 1 mM
T1 construct: (HpHtrA, G18-K475, UniProt G2J5T2); GST (N, cleaved yes); made in house; host or cells: E. coli BL21
T1 sequence (G2J5T2 18-475): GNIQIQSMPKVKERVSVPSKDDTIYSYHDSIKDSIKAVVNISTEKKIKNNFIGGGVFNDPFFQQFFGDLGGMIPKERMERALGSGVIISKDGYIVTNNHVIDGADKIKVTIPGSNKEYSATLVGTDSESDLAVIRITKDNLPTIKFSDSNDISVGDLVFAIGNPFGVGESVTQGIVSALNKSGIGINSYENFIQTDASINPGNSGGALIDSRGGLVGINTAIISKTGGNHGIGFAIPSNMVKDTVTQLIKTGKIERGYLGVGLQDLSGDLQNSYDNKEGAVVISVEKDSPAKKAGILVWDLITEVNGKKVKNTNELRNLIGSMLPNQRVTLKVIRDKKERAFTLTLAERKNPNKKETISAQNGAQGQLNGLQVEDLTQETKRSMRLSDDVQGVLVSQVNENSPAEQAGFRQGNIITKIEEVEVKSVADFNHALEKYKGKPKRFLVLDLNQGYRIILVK
Excerpt: (§1) The proteins were separated by SDS-PAGE and visualized by staining with Coomassie Brilliant Blue G250 (Lactan, Vienna, Austria). […] Proteins were separated using SDS-PAGE and blotted onto a nitrocellulose membrane. Human Cdh1 was detected by an antibody recognizing the EC5 domain of hCdh1 (Abcam, Cambridge, UK) and a polyclonal serum was used to detect HpHtrA[22]. Independent experiments were repeated at least three times.

[2] = target: T1, HpHtrA; test: FRET peptide assay of HpHtrA activity; type: biochemical; conditions: 5 µM FRET peptide, 250 nM HpHtrA, 37 °C, 50 mM HEPES pH 7.4, read-out: IC50 of HpHtrA inhibition
Excerpt: For the establishment of a FRET-based assay for the quantification of the HpHtrA activity, the 2-Abz/3-nitrotyrosine FRET pair[53]–[55] was introduced into the sequence AQRVAF: the fluorophore (2-Abz, Ex/Em 320/435 nm) was coupled at the N-terminus, whereas the quencher (3-nitrotyrosine, Ex 425 nm[56]) was positioned at the C-end. The FRET activity of this peptide was first confirmed by measuring the fluorescence emission in the range 400–450 nm before and after the trypsin-mediated cleavage of the peptide bond R_V (Fig. S3). The measurements were performed in a black, flat-bottom 96-well plate (Nunc, Thermo Scientific, Schwerte, Germany) at 37 °C. 5 µM of the peptide were incubated with 250 nM HpHtrA and 125 nM trypsin in 50 mM HEPES buffer (pH 7.4). […] Cleavage of the peptide leads to increasing fluorescence, which was measured in a plate reader (Infinite 200 PRO, TECAN, Groedig, Austria) with a filter setting of 320 nm/425 nm (Ex/Em). Statistical analysis was performed with GraphPad Prism software (Vers. 8.0.2). […] Three independent experiments containing three technical replicates were analyzed for every sample. Significance is indicated as non-significant (ns) for p > 0.05, * for p < 0.05, ** for p < 0.01, *** for p < 0.001, and **** for p < 0.0001.

[3] = target: T2, HpHtrA wt (Helicobacter pylori, UniProt G2J5T2); test: HpHtrA oligomerization, non-reducing SDS-PAGE; parameters: (HpHtrA, G18-K475, UniProt G2J5T2); GST (N, cleaved yes); made in house; host or cells: E. coli BL21
T2 sequence (G2J5T2 18-475): T1 sequence (G2J5T2 18-475)
Experimental: Non-reducing sample buffer without β-mercaptoethanol was added and the samples were separated by SDS-PAGE containing 0.1% casein (Carl Roth, Karlsruhe, Germany) as a substrate. The gel was incubated for 60 min in renaturing buffer (2.5% Triton X-100) and equilibrated for 30 min in developing buffer (50 mM Tris–HCl, pH 7.4, 200 mM NaCl, 5 mM CaCl2, and 0.02% Brij-35) at room temperature under gentle agitation. Afterwards, the gel was incubated for 24 h at 37 °C in developing buffer under gentle agitation. To visualize caseinolytic activity, the gel was stained in 0.5% Coomassie Brilliant Blue R250 (Carl Roth, Karlsruhe, Germany). For detection of multimers by SDS-PAGE, HpHtrA was separated by SDS-PAGE under non-reducing conditions. Proteins were visualized by staining with Coomassie Brilliant Blue G250. Independent experiments were repeated at least four times.

[4] = test system: BbHtrA; parameters: method as in PMID 26480895; conditions: cited from earlier work
[5] = target: T1, HpHtrA; test: in vitro casein cleavage by HpHtrA (Coomassie SDS-PAGE); type: biochemical; conditions: 10 µg casein, 250 ng HpHtrA, 16 h, 37 °C; for effect on HtrA-mediated casein degradation: 1 mM
Excerpt: as §1

Structure (SMILES)	concentration that clearly inhibited HpHtrA-mediated hCdh1 fragmentation [1] [µM]	effect on HpHtrA-mediated hCdh1 cleavage/fragmentation [1]	IC50 ([2]; after 15 min) [nM]	IC50 ([2]; after 180 min) [nM]	concentration sufficient to enhance oligomerization or the stability of HpHtrA ([3]; Coomassie-stained gel, non-reducing conditions) [µM]	effect on casein degradation by BbHtrA [4]	concentration giving a slight inhibitory effect on casein cleavage [5] [µM]	IC100 ([5]; read-out: concentration required to fully inhibit casein cleavage) [µM]	effect on HtrA-mediated casein degradation [5]	stabilization of HpHtrA wt oligomers ([3]; low concentrations, Coomassie-stained SDS-PAGE, non-reducing)
[Zn+2] [Zn^++, ZnCl2]	50	strongly decreased	650	2570	50	similarly inhibited	250	500 to 1000	strongly inhibited	–
[Cu+2] [Cu^++, CuCl2]	–	strongly decreased	295	937	–	similarly inhibited	250	–	strongly inhibited	only slightly stabilized
